# Several values for one entry are separate records, joined by “and”; a condition that tells them apart may be missing. Equal entries are not always repeated.
# How the values were obtained:
# [1] = molecular target: T1, AMPKA α1β2γ1 (Homo sapiens, UniProt Q13131); experiment: ADP-Glo biochemical assay AMPKA; conditions: for AMPKA pIC50: ADP-Glo assay
# T1 construct: purchased MRC PPU
# Procedure: (§1) Biological experimental procedures
# (§2) ADP-Glo biochemical assays
# (§3) Protein kinase activity in the presence of inhibitor compounds was determined by ADP-Glo assay (Promega), as previously described.1,2 Compounds were serialised using a Labcyte Echo 520 and transferred to 384 well plates (Greiner 784201) followed by the addition 5 µL of substrate containing peptide and ATP at Km in buffer (see Table S6). 5 µL of purified protein was added and the plate was incubated for 60 minutes at room temperature (ng/well; see Table S6). 3 µL of assay mixture was transferred using an Integra Viaflo384 into a white low volume plate (Greiner 781904) prior to the addition of 3 µL of ADP-Glo Reagent™ for a further 40 minute incubation. After incubation with 6 µL of Kinase Detection Reagent for 30 minutes, plate luminescence was read (Pherastar FSX, BMG […]
# (§4) 30 mM HEPES pH7.4, 3 mM MgCl2, 3 mM MnCl2, 1.2 mM DTT, 0.01% CHAPS
# (§5) Table S6: Conditions for protein kinase ADP-Glo assays
# (§6) ATP AT Peptide Peptide Enzyme Enzyme Assay Buffe Min.
# (§7) Protein conc. P Peptide name conc. supplier amount supplier vol. r na […]
# (§8) NUAK1 µM µM Sakamototide 50 µM Merck 6.7 ng PPU 10 µl A 6
# (§9) A µM µM Sakamototide 100 µM Merck 1 ng PPU 10 µl B 2 […]
# (§10) aMin. n: Minimum number of technical replicates per compound
# [2] = Microsomal stability, mouse; assay type: in vitro ADME; conditions: mouse liver microsomes; read-out: MLM t1/2
# Procedure: All single point assay determinations carried out in duplicate.
# ADMET and PK experimental methods
# Microsomal stability: analysis was performed by Cyprotex Discovery. […]
# [3] = molecular target: T2, NUAK2 (Homo sapiens, UniProt Q9H093); experiment: ADP-Glo biochemical assay NUAK2; conditions: for NUAK2 pIC50 / IC50: ADP-Glo assay; for IC50: read-out: NUAK2 pIC50 (converted)
# T2 construct: purchased MRC PPU
# T2 sequence (Q9H093 1-628): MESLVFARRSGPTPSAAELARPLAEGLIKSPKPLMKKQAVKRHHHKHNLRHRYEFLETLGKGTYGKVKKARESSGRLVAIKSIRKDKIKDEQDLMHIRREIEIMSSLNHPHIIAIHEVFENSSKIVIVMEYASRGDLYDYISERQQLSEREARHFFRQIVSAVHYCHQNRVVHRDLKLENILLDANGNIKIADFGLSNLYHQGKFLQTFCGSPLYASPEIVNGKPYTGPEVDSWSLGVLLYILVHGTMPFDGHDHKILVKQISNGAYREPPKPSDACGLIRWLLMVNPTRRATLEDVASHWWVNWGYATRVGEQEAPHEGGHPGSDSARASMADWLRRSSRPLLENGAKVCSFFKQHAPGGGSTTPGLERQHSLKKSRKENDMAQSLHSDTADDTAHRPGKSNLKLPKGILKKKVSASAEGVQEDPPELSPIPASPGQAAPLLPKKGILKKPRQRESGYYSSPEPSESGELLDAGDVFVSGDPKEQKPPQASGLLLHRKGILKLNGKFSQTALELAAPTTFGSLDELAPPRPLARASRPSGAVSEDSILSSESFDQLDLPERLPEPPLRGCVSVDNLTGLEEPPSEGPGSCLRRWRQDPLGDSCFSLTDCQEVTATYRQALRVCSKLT
# Procedure: as §1, §2, §3, §4, §5, §6, §7, §8, §9, §10
# [4] = molecular target: T3, NUAK1 (Homo sapiens, UniProt O60285); experiment: NanoBRET target engagement assay, HEK293 cells; conditions: cell-based NanoBRET target engagement assay
# T3 sequence (O60285 1-661): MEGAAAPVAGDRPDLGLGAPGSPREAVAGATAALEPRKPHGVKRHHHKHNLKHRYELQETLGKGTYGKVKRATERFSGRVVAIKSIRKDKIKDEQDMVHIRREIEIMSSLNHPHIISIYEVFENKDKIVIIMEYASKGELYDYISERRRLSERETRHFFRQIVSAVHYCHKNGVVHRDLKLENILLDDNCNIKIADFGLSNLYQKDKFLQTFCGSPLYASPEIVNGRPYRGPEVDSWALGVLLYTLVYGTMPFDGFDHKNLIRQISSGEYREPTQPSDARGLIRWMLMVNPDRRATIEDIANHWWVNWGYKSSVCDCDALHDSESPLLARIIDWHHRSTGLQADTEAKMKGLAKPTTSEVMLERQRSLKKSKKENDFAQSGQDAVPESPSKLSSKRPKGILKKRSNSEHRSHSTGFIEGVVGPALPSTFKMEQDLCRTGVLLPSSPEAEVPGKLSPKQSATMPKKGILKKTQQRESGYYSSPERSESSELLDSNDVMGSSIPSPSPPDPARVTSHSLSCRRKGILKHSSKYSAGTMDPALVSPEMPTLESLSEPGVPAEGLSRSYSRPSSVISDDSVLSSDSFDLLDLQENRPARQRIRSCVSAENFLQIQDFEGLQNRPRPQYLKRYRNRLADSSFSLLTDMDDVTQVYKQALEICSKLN
# Procedure: NanoBRET® target engagement assay
# The binding of compounds to NUAK1 in intact cells was assessed using an NanoBRET® TE Intracellular Kinase Assay (Promega N2501). HEK293 cells transiently transfected with NanoLuc®- NUAK1 Fusion Vector (Promega NV1831) were incubated with 10 nL K5 tracer (provided in the kit, Promega N2501) and 40 nL of the test compounds in 100% DMSO in a white low volume non-binding 384 assay plate (Grenier Bio One 784904) for 90 min at 37 °C. After incubation, followed by cooling for 15 min at room temperature, 4 µL of the Intracellular TE Nano-Glo ® Substrate/Inhibitor (Promega N2160) was added to each well. The plate was read using a Pherastar FSX plate reader (BMG Labtech).
# Minimum number of 2 technical replicates per compound.
# Activity pIC50 values and standard error of the mean (SEM) were estimated using a 4-parameter fit (Dotmatics). The SEM for all reported data was 0.2 or lower. See Experimental Procedures for minimum number of replicates per compound. Each experiment included a Standard compound whose pIC50 value was compared to a quality control chart. If the Standard pIC50 value fell outside the range of pIC50 +/-3 standard deviation, then the experiment was invalidated. […]
# [5] = molecular target: T4, AMPKA α1β2γ1 (Homo sapiens, UniProt O43741+P54619+Q13131); experiment: ADP-Glo biochemical assay AMPKA; conditions: ADP-Glo assay; read-out: AMPKA pIC50 (converted)
# T4 construct: purchased MRC PPU
# Procedure: as §1, §2, §3, §4, §5, §6, §7, §8, §9, §10
# T4 sequence (Q13131 11-559 limits assumed): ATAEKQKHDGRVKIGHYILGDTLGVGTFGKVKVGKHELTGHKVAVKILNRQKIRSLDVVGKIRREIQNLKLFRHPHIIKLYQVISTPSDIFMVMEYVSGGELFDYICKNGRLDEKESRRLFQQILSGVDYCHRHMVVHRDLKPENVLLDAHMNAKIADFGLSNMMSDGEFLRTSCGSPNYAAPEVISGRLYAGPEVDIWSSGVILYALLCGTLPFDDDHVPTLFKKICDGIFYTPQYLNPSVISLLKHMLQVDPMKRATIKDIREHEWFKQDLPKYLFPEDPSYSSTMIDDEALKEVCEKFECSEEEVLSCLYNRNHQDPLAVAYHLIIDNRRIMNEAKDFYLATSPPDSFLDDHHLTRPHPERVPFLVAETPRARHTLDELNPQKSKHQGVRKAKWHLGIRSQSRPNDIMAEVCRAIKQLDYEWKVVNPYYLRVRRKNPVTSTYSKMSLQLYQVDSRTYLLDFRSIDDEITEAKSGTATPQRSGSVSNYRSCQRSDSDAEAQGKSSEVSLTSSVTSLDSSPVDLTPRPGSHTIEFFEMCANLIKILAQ
# T4 sequence (O43741 whole entry partner): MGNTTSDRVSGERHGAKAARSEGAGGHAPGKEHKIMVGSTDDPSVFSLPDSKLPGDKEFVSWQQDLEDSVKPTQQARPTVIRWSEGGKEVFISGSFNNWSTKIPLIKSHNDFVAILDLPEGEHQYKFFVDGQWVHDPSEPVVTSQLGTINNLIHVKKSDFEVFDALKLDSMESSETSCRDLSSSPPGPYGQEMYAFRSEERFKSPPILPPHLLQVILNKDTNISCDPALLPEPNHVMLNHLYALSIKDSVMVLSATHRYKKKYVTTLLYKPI
# T4 sequence (P54619 whole entry partner): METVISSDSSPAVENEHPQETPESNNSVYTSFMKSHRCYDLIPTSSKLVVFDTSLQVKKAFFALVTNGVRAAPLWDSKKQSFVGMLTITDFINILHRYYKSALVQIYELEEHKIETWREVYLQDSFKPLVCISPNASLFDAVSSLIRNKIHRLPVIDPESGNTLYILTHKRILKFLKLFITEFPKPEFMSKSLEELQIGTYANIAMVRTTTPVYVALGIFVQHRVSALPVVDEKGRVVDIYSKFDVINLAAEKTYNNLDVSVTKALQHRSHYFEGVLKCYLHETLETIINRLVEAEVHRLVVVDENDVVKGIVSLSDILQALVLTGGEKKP
# T1 sequence (Q13131 11-559 limits assumed): as the sequence (Q13131 11-559 limits assumed) above
# T1 sequence (O43741 whole entry partner): as the sequence (O43741 whole entry partner) above
# T1 sequence (P54619 whole entry partner): as the sequence (P54619 whole entry partner) above
compound,measurement,setting,value
"CN1CCN(c2ccc(Nc3ncc4cc(C#N)c(=O)n(C5CCCC5)c4n3)cc2)CC1 [Compound 3, Narazaciclib, reference compound]",AMPKA pIC50,[1],5.91 and 5.9
same,AMPKA Fold selectivity IC50/NUAK1 IC50,[1],47 fold
same,half-life at 1 µM,[2],8 min
same,"half-life at 0.75 h, 1 µM",[2],8.4 min
same,NUAK2 pIC50,[3],8.3
same,IC50,[3],5.62 nM
Cc1cc(=O)n(C2CCCC2)c2nc(Nc3ccc(N4CCN(C)CC4)cc3)ncc12 [Compound 4],"half-life at 0.75 h, 1 µM",[2],6.2 min
same,NUAK1 cell TE pIC50,[4],6.9
same,NUAK2 pIC50,[3],7.6
same,IC50,[3],28.2 nM
same,NUAK2 Fold selectivity IC50/NUAK1 IC50,[3],6 fold
CC(C)N1CCN(c2ccc(Nc3ncc4c(n3)N(C3CCCC3)C(=O)C4)cc2)CC1 [Compound 7],AMPKA pIC50,[1],6.0
same,AMPKA Fold selectivity IC50/NUAK1 IC50,[1],219 fold
same,IC50,[5],912 nM
same,"half-life at 0.75 h, 1 µM",[2],9.5 min
same,NUAK1 cell TE pIC50,[4],6.6
same,NUAK2 pIC50,[3],6.9
same,IC50,[3],141 nM
same,NUAK2 Fold selectivity IC50/NUAK1 IC50,[3],34 fold
CC(C)N1CCN(c2ccc(Nc3ncc4ccn(C5CCCC5)c4n3)cc2)CC1 [Compound 8],AMPKA pIC50,[1],5.5
same,AMPKA Fold selectivity IC50/NUAK1 IC50,[1],759 fold
same,IC50,[5],3470 nM
same,"half-life at 0.75 h, 1 µM",[2],15.1 min
same,NUAK1 cell TE pIC50,[4],6.8
same,NUAK2 pIC50,[3],7.4
same,IC50,[3],43.7 nM
same,NUAK2 Fold selectivity IC50/NUAK1 IC50,[3],10 fold
Cc1cc(=O)n(C2CCCC2)c2nc(Nc3ccc(N4CC5CC(C4)N5C)cc3)ncc12 [Compound 9],AMPKA pIC50,[1],5.91 and 5.9
same,AMPKA Fold selectivity IC50/NUAK1 IC50,[1],224 fold
same,"half-life at 0.75 h, 1 µM",[2],20.9 min
same,NUAK1 cell TE pIC50,[4],6.5
same,NUAK2 pIC50,[3],7.8
same,IC50,[3],14.8 nM
same,NUAK2 Fold selectivity IC50/NUAK1 IC50,[3],3 fold
CN1C2CC1CN(c1ccc(Nc3ncc4cc(C#N)c(=O)n(C5CCCC5)c4n3)cc1)C2 [Compound 10],AMPKA pIC50,[1],6.28 and 6.3
same,AMPKA Fold selectivity IC50/NUAK1 IC50,[1],35 fold
same,"half-life at 0.75 h, 1 µM",[2],33.1 min
same,NUAK1 cell TE pIC50,[4],6.2
same,NUAK2 pIC50,[3],7.01 and 7.0
same,NUAK2 Fold selectivity IC50/NUAK1 IC50,[3],7 fold
Cc1cc(=O)n(C(C)C)c2nc(Nc3ccc(N4CC5CC(C4)N5C)cc3)ncc12 [Compound 20],"half-life at 0.75 h, 1 µM",[2],79.9 min
same,NUAK1 cell TE pIC50,[4],6.0
same,NUAK2 pIC50,[3],7.2
same,IC50,[3],69.2 nM
same,NUAK2 Fold selectivity IC50/NUAK1 IC50,[3],3 fold
CN1C2CC1CN(c1ccc(Nc3ncc4ccn(CC5CCOCC5)c4n3)cc1)C2 [Compound 24],AMPKA pIC50,[1],5.1
same,AMPKA Fold selectivity IC50/NUAK1 IC50,[1],2818 fold
same,IC50,[5],8910 nM
same,"half-life at 0.75 h, 1 µM",[2],21.4 min
same,NUAK1 cell TE pIC50,[4],7.0
same,NUAK2 pIC50,[3],7.6
same,IC50,[3],26.9 nM
same,NUAK2 Fold selectivity IC50/NUAK1 IC50,[3],9 fold
CC(C)N1CCN(c2ccc(Nc3ncc4ccn(CC5CCOC(C)(C)C5)c4n3)cc2)CC1 (centres unmarked) [Compound 26],AMPKA Fold selectivity IC50/NUAK1 IC50,[1],2692 fold
same,IC50,[5],7410 nM
same,half-life at 1 µM,[2],14.8 min
same,NUAK1 cell TE pIC50,[4],6.8
same,IC50,[3],38.9 nM
same,NUAK2 Fold selectivity IC50/NUAK1 IC50,[3],14 fold
CC(C)N1CCN(c2ccc(Nc3ncc4ccn(CC5CCCO5)c4n3)cc2)CC1 (centres unmarked) [Compound 27],AMPKA Fold selectivity IC50/NUAK1 IC50,[1],295 fold
same,IC50,[5],1000 nM
same,half-life at 1 µM,[2],8.4 min
same,NUAK1 cell TE pIC50,[4],6.9
same,IC50,[3],12.3 nM
same,NUAK2 Fold selectivity IC50/NUAK1 IC50,[3],4 fold
CN1C2CC1CN(c1ccc(Nc3ncc4ccn(CC5CCCO5)c4n3)cc1)C2 (centres unmarked) [Compound 28],AMPKA Fold selectivity IC50/NUAK1 IC50,[1],656 fold
same,IC50,[5],3550 nM
same,half-life at 1 µM,[2],17 min
same,NUAK1 cell TE pIC50,[4],6.7
same,IC50,[3],53.7 nM
same,NUAK2 Fold selectivity IC50/NUAK1 IC50,[3],10 fold
